According to US20250195521A1 (Revolution Medicines, Inc., priority 2020, published 2025):

system: NCI-H358 (K-Ras G12C); assay: CellTiter-Glo cell viability assay, NCI-H358; assay type: cell-based, human; conditions: 5-day treatment; read-out: H358 Cell Viability assay data (K-Ras G12C, IC50)
Description: Determination of Cell Viability in RAS Mutant Cancer Cell Lines Protocol: CellTiter-Glo® Cell Viability Assay
Note—The following protocol describes a procedure for monitoring cell viability of K-Ras mutant cancer cell lines in response to a compound of the invention. Other RAS isoforms may be employed, though the number of cells to be seeded will vary based on cell line used.
Test compounds (132.5 nL) were directly dispensed into the assay plates containing cells. […] On day 5, assay plates and their contents were equilibrated to room temperature for approximately 30 minutes. […] Luminescence was measured using the PerkinElmer Enspire. Data were normalized by the following: (Sample signal/Avg. DMSO)*100. The data were fit using a four-parameter logistic fit.

Structure (SMILES) | IC50
C=CC(=O)N1CC[C@H](C(=O)N(C)[C@H](C(=O)N[C@H]2Cc3cc(O)cc(c3)-c3ccc4c(c3)c(c(-c3cccnc3)n4C(C)(C)C#N)CC(C)(C)COC(=O)[C@@H]3CCCN(N3)C2=O)C(C)C)C1 [Compound A74] | 0.01 to 0.1 µM
C=CC(=O)N1CC[C@H](C(=O)N(C)[C@H](C(=O)N[C@H]2Cc3cc(O)cc(c3)-c3ccc4c(c3)c(c(-c3cnccc3[C@H](C)OC)n4CC)CC(C)(C)COC(=O)[C@@H]3CCCN(N3)C2=O)C(C)C)C1 [Compound A112] | < 0.01 µM
C=CC(=O)N1CC[C@H](C(=O)N(C)[C@H](C(=O)N[C@H]2Cc3cccc(c3)-c3ccc4c(c3)c(c(-c3cnccc3[C@H](C)OC)n4CC)CC(C)(C)COC(=O)[C@@H]3CCCN(N3)C2=O)C(C)C)C1 [Compound A122] | > 10 µM

same assay, conditions: Homo sapiens, NCI-H358, 120 h, 5-day treatment; read-out: H358 Cell Viability assay data (K-Ras G12C, IC50)

Structure (SMILES) | IC50
CCn1c(-c2cnccc2COC)c2c3cc(ccc31)-c1cc(O)cc(c1)C[C@H](NC(=O)[C@H](C(C)C)N(C)C(=O)[C@H]1CCN(C=O)C1)C(=O)N1CCC[C@H](N1)C(=O)OCC(C)(C)C2 [Compound A17, (2S)—N-[(8S,14S)-22-ethyl-4-hydroxy-21-[4-(methoxymethyl)pyridin-3-yl]-18,18-dimethyl-9,15-dioxo-16-oxa-10,22,28-triazapentacyclo [18.5.2.1^2,6.1^10,14.0^23,27]nonacosa-1 (26), 2,4,6 (29),20,23 (27),24-heptaen-8-yl]-2-{1-[(3S)-1-formylpyrrolidin-3-yl]-N-methylformamido}-3-methylbutanamide] | 0.1 to 1 µM
CCn1c(-c2cnccc2COC)c2c3cc(ccc31)-c1cc(O)cc(c1)C[C@H](NC(=O)[C@H](C(C)C)N(C)C(=O)[C@H]1CCN(C(=O)C(C)C)C1)C(=O)N1CCC[C@H](N1)C(=O)OCC(C)(C)C2 [Compound A29] | 0.1 to 1 µM
C=CC(=O)N1CC[C@H](C(=O)N(C)[C@H](C(=O)N[C@H]2Cc3cc(O)cc(c3)-c3ccc4c(c3)c(c(-c3ccc(C5CCN(C)CC5)cc3)n4CC)CC(C)(C)COC(=O)[C@@H]3CCCN(N3)C2=O)C(C)C)C1 [Compound A39] | 0.01 to 0.1 µM
C=CC(=O)N1CC[C@H](C(=O)N(C)[C@H](C(=O)N[C@H]2Cc3cc(O)cc(c3)-c3ccc4c(c3)c(c(-c3ccc5c(c3)CCN(C)C5)n4CC)CC(C)(C)COC(=O)[C@@H]3CCCN(N3)C2=O)C(C)C)C1 [Compound A40] | 0.01 to 0.1 µM
CCn1c(-c2ccccc2CN(C)C)c2c3cc(ccc31)-c1cc(O)cc(c1)C[C@H](NC(=O)[C@H](C(C)C)N(C)C(=O)c1ccc(NC(=O)/C=C/CN(C)C)cn1)C(=O)N1CCC[C@H](N1)C(=O)OCC(C)(C)C2 [Compound A46] | > 10 µM
CCn1c(-c2cnccc2COC)c2c3cc(ccc31)-c1cc(O)cc(c1)C[C@H](NC(=O)[C@@H](OC(=O)N(C)C)C(C)C)C(=O)N1CCC[C@H](N1)C(=O)OCC(C)(C)C2 [Compound A53] | 0.1 to 1 µM
C=CC(=O)N1CC[C@H](C(=O)N(C)[C@H](C(=O)N[C@H]2Cc3cc(O)cc(c3)-c3ccc4c(c3)c(c(-c3cncnc3)n4CC)CC(C)(C)COC(=O)[C@@H]3CCCN(N3)C2=O)C(C)C)C1 [Compound A61] | 0.01 to 0.1 µM
C=CC(=O)N1CC[C@@]2(CCCN([C@H](C(=O)N[C@H]3Cc4cc(O)cc(c4)-c4ccc5c(c4)c(c(-c4ccccc4CCOC)n5CC)CC(C)(C)COC(=O)[C@@H]4CCCN(N4)C3=O)C(C)C)C2=O)C1 [Compound A63] | 0.1 to 1 µM
CCn1c(-c2cccnc2COC)c2c3cc(ccc31)-c1cc(O)cc(c1)C[C@H](NC(=O)[C@H](C(C)C)N(C)C(=O)[C@H]1CCN(C(=O)/C=C/CN3CCN(C)CC3)C1)C(=O)N1CCC[C@H](N1)C(=O)OCC(C)(C)C2 [Compound A72] | > 10 µM
C=CC(=O)N1CC[C@H](C(=O)N(C)[C@H](C(=O)N[C@H]2Cc3cc(O)cc(c3)-c3ccc4c(c3)c(c(-c3cnccc3[C@H](C)OC)n4CC)CC(C)(C)COC(=O)[C@@H]3CCCN(N3)C2=O)C(C)C)C1 [Compound A76] | < 0.01 µM
CCn1c(-c2ccccc2COC)c2c3cc(ccc31)-c1cc(O)cc(c1)C[C@H](NC(=O)[C@H](C(C)C)N(C)C(=O)[C@H]1CCN(C(=O)/C=C/CN(C)C)C1)C(=O)N1CCC[C@H](N1)C(=O)OCC(C)(C)C2 [Compound A79] | 0.01 to 0.1 µM
CCn1c(-c2cnccc2COC)c2c3cc(ccc31)-c1cc(O)cc(c1)C[C@H](NC(=O)[C@H](C(C)C)N(C)C(=O)C1CCN(C)CC1)C(=O)N1CCC[C@H](N1)C(=O)OCC(C)(C)C2 [Compound A84] | 0.1 to 1 µM
CCn1c(-c2ccccc2CN(C)C)c2c3cc(ccc31)-c1cc(O)cc(c1)C[C@H](NC(=O)[C@H](C(C)C)N(C)C(=O)c1nc(NC(=O)/C=C/CN(C)C)cs1)C(=O)N1CCC[C@H](N1)C(=O)OCC(C)(C)C2 [Compound A90] | > 10 µM
CCn1c(-c2cccnc2[C@H](C)OC)c2c3cc(ccc31)-c1cccc(c1)C[C@H](NC(=O)[C@H](C(C)C)N(C)C(=O)[C@H]1CCN(C(=O)CN(C)C)C1)C(=O)N1CCC[C@H](N1)C(=O)OCC(C)(C)C2 [Compound A96] | < 0.01 µM
C=CC(=O)N1CC[C@H](C(=O)N(C)[C@H](C(=O)N[C@H]2Cc3cc(O)cc(c3)-c3cc4c(c(-c5ccccc5CCOC)n(CC)c4cn3)CC(C)(C)COC(=O)[C@@H]3CCCN(N3)C2=O)C(C)C)C1 [Compound A102] | > 10 µM
C=CC(=O)N1CCN(C(=O)N(C)[C@H](C(=O)N[C@H]2Cc3cc(O)cc(c3)-c3ccc4c(c3)c(c(-c3ccccc3CCOC)n4CC)CC(C)(C)COC(=O)[C@@H]3CCCN(N3)C2=O)C(C)C)C[C@@H]1COC [Compound A125] | > 10 µM
CCn1c(-c2ccccc2CN(C)C)c2c3cc(ccc31)-c1cc(O)cc(c1)C[C@H](NC(=O)[C@@H](C(C)C)N(C)C(=O)c1ncc(NC(=O)/C=C/CN(C)C)n1C)C(=O)N1CCC[C@H](N1)C(=O)OCC(C)(C)C2 [Compound A126] | > 10 µM
CCn1c(-c2cnccc2[C@H](C)OC)c2c3cc(ccc31)-c1cccc(c1)C[C@H](NC(=O)[C@H](C1CCCC1)N(C)C(=O)[C@H]1CCN(C(=O)C#CCN(C)C)C1)C(=O)N1CCC[C@H](N1)C(=O)OCC(C)(C)C2 [Compound A133] | < 0.01 µM
C=CC(=O)N1CC[C@H](C(=O)N(C)[C@H](C(=O)N[C@H]2Cc3cc(ccn3)-c3ccc4c(c3)c(c(-c3cccnc3COC)n4CC)CC(C)(C)COC(=O)[C@@H]3CCCN(N3)C2=O)C(C)C)C1 [Compound A136] | > 10 µM
C=CC(=O)N1CC[C@H](C(=O)N(C)[C@H](C(=O)N[C@H]2Cc3cc(O)cc(c3)-c3ccc4c(c3)c(c(-c3cc(CN(C)C)cnc3COC)n4CC)CC(C)(C)COC(=O)[C@@H]3CCCN(N3)C2=O)C(C)C)C1 [Compound A149] | 0.01 to 0.1 µM
C=CC(=O)N1CC[C@H](C(=O)N(C)[C@H](C(=O)N[C@H]2Cc3cc(O)cc(c3)-c3ccc4c(c3)c(c(-c3cccnc3)n4C3CC3)CC(C)(C)COC(=O)[C@@H]3CCCN(N3)C2=O)C(C)C)C1 [Compound A160] | 0.1 to 1 µM
C=CC(=O)N1CC(NC[C@H](C(=O)N[C@H]2Cc3cc(O)cc(c3)-c3ccc4c(c3)c(c(-c3cccnc3COC)n4CC)CC(C)(C)COC(=O)[C@@H]3CCCN(N3)C2=O)C(C)C)C1 [Compound A174] | > 10 µM
C/C=C(\C#N)C(=O)N1CC[C@H](C(=O)N(C)[C@H](C(=O)N[C@H]2Cc3cc(O)cc(c3)-c3ccc4c(c3)c(c(-c3cccnc3COC)n4CC)CC(C)(C)COC(=O)[C@@H]3CCCN(N3)C2=O)C(C)C)C1 [Compound A178] | > 10 µM
C=CC(=O)N1CC[C@@H](C(=O)N(C)[C@H](C(=O)N[C@H]2Cc3cc(O)cc(c3)-c3ccc4c(c3)c(c(-c3cncnc3)n4CC)CC(C)(C)COC(=O)[C@@H]3CCCN(N3)C2=O)C(C)C)O1 [Compound A179] | > 10 µM
C=CC(=O)N1CC[C@H](C(=O)N(C)[C@H](C(=O)N[C@H]2Cc3cc(O)cc(c3)-c3ccc4c(c3)c(c(-c3cncnc3)n4CC)CC(C)(C)COC(=O)[C@@H]3CCCN(N3)C2=O)C(C)C)O1 [Compound A180] | > 10 µM
CCn1c(-c2cccnc2[C@H](C)OC)c2c3cc(ccc31)-c1cc(O)cc(c1)C[C@H](NC(=O)[C@H](C(C)C)N(C)C(=O)[C@H]1CCN(C(=O)C#CCN3CCOCC3)C1)C(=O)N1CCC[C@H](N1)C(=O)OCC(C)(C)C2 [Compound A182] | < 0.01 µM
COCc1ncccc1-c1nc2ccc3cc2n1CC(C)(C)COC(=O)[C@@H]1CCCN(N1)C(=O)[C@@H](NC(=O)[C@H](C(C)C)N(C)C(=O)[C@H]1CCN(C(=O)C#CCN2CCOCC2)C1)Cc1cc(O)cc-3c1 [Compound A188] | > 10 µM
CCn1c(-c2cccnc2COC)c2c3cc(ccc31)-c1cc(O)cc(c1)C[C@H](NC(=O)[C@H](C(C)C)N(C)C(=O)[C@H]1CCN(C(=O)C#CCN3CCN(C)CC3)C1)C(=O)N1CCC[C@H](N1)C(=O)OCC(C)(C)C2 [Compound A189] | > 10 µM
CCn1c(-c2cncnc2)c2c3cc(ccc31)-c1cccc(c1)[C@@H](OC)[C@H](NC(=O)[C@H](C(C)C)N(C)C(=O)[C@H]1CCN(C(=O)C#CCN3CCOCC3)C1)C(=O)N1CCC[C@H](N1)C(=O)OCC(C)(C)C2 [Compound A208] | > 10 µM
CCn1c(-c2ccccc2CN(C)C)c2c3cc(ccc31)-c1cc(O)cc(c1)C[C@H](NC(=O)[C@H](C(C)C)N(C)Cc1ccc(NC(=O)/C=C/CN(C)C)cn1)C(=O)N1CCC[C@H](N1)C(=O)OCC(C)(C)C2 [Compound A213] | > 10 µM

same assay, conditions: Homo sapiens, NCI-H358, 120 h, read-out: H358 Cell Viability assay data (K-Ras G12C, IC50, uM), 5-day treatment

Structure (SMILES) | IC50
C=CC(=O)N1CC[C@H](C(=O)N(C)[C@H](C(=O)N[C@H]2Cc3cc(O)cc(c3)-c3ccc4c(c3)c(c(-c3cc(C)cnc3[C@H](C)OC)n4CC)CC(C)(C)COC(=O)[C@@H]3CCCN(N3)C2=O)C(C)C)C1 [Compound A167] | < 0.01 µM

same assay, conditions: read-out: H358 Cell Viability assay data (K-Ras G12C, IC50); 5-day treatment

Structure (SMILES) | IC50
CC#CC(=O)N1CC[C@H](C(=O)N(C)[C@@H](C(=O)N[C@H]2Cc3cc(O)cc(c3)-c3ccc4c(c3)c(c(-c3cccnc3[C@H](C)OC)n4CC)CC(C)(C)COC(=O)[C@@H]3CCCN(N3)C2=O)C(C)C)C1 [Compound A198] | > 10 µM
